Activity calls are given as the source filed them. No rule for the calls is given here.
Biological target: X-box-binding protein 1 (Homo sapiens) (UniProt P17861)
Assay: XBP1 reporter suppression in cells – counter-screen, dose response (AID 504313);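 also: CHO cells carrying an XBP1 reporter stimulated with tunicamycin; potency is for inhibition of the tunicamycin-induced reporter signal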
Conditions: XBP1 reporter cell assay, percent of control

SMILES | IC50
Nc1ccc(N2CCCCCC2)cc1 | > 10 µM (inactive)
CCCC(=O)N1CCN(c2ccc(NC(=O)c3cc4ccccc4o3)cc2Cl)CC1 | inactive
CS(=O)(=O)c1nc(-c2cccs2)cc(C(F)(F)F)n1 | inactive
CCN(CC)CCn1c(SCC(=O)Nc2ccc(F)cc2)nc2c(sc3ccccc32)c1=O | > 10 µM (inactive)
C[C@H]1C[C@@H](C)C(=O)[C@@H]([C@H](O)CC2CC(=O)NC(=O)C2)C1 | 0.21 µM
CCOc1cc(/C=C2/C(=O)ON=C2C)ccc1OCc1ccc(F)cc1 | > 10 µM (inactive)
Cc1nc(NC(=O)CSc2nc3cccnc3n2Cc2ccccc2)sc1C | > 10 µM (inactive)
O=c1cc(-c2c(F)c(F)c(F)c(F)c2F)oc2c(F)c(F)c(F)c(F)c12 | 4.69 µM
Cc1cc(/C=N/n2cnnc2)c(C)n1-c1ccc(OCc2ccccc2F)cc1 | 4.85 µM
CC(C)(C)c1ccc(C(=O)NC(=S)NNC(=O)c2cccs2)cc1 | > 10 µM (inactive)
COc1c(CC=C(C)C)cc(C2CC(=O)c3c(O)cc(O)cc3O2)cc1CC=C(C)C (stereo not drawn) | inactive
COc1ccc(-c2cc(C3CCN(Cc4cccc(C(F)(F)F)c4)CC3)[nH]n2)cc1 | inactive
CC(C)(C)c1ccc(C2CC2C(=O)N/N=C\c2ccc[nH]2)cc1 (stereo not drawn) | inactive
O=C(CSc1ncnc2[nH]ncc12)Nc1nc(-c2ccc(F)c(F)c2)cs1 | > 10 µM (inactive)
Cc1nc(SCC(=O)Nc2ccc(C)c(F)c2)c2oc3ccccc3c2n1 | > 10 µM (inactive)
Cc1ccc(NC(=O)CCl)cc1S(=O)(=O)N1CCCCCC1 | inactive
CC(C)(C)c1ccc(-c2n[nH]c(=S)n2C2CCCC2)cc1 | > 10 µM (inactive)
CN1CC(c2ccccc2)C2(SC(=S)N(Cc3ccco3)C2=O)C12C(=O)Nc1ccccc12 (stereo not drawn) | > 10 µM (inactive)
N#C/C(=C\c1ccc([N+](=O)[O-])o1)C(=O)Nc1ccc(F)cc1 | > 10 µM (inactive)
O=C(Nc1ccc(F)cc1)Nc1ccc(N2CCCC2)c(S(=O)(=O)Nc2ccccc2Cl)c1 | inactive
Cc1ccc(-c2cc3c(nn2)-c2ccccc2C3=O)cc1 | inactive
O=C(Nc1ccc(Cl)cc1)Nc1ccc(N2CCCC2)c(S(=O)(=O)Nc2ccccc2Cl)c1 | inactive
COC(=O)c1ccc2c(c1)C(C)(C)C(/C=C/c1ccc(O)cc1)=[N+]2C | > 10 µM (inactive)
COc1ccc(-c2cnc(OC(C)(C)C)nc2OC(C)(C)C)cc1OC | inactive
CC(C)(C)C(=O)c1no[n+]([O-])c1/C(=N/O)C(C)(C)C | > 10 µM (inactive)

SMILES | IC50
COc1ccc(N2C(=O)CC(Sc3nnnn3-c3ccc(F)cc3)C2=O)cc1 (stereo not drawn) | > 10 µM (inactive)
CCCC(=O)OCCNc1cc(Sc2nc3ccccc3[nH]2)c2nonc2c1[N+](=O)[O-] | inactive
Cc1ccc(N(c2ncnc(N)c2[N+](=O)[O-])C2CCCCC2)cc1 | > 10 µM (inactive)
N#Cc1c(N)nc(SCC(=O)C23CC4CC(CC(C4)C2)C3)c(C#N)c1-c1ccc(Cl)cc1 | > 10 µM (inactive)
CC(C)(C)C(=O)NC(NC(=S)Nc1sc2c(c1C#N)CCCC2)C(Cl)(Cl)Cl (stereo not drawn) | > 10 µM (inactive)
CCCCCc1c(C)nc(NCc2ccccc2)[nH]c1=O | > 10 µM (inactive)
CC(C)(C)C1C/C(=C/c2ccco2)C(=O)/C(=C/c2ccco2)C1 (stereo not drawn) | > 10 µM (inactive)
COc1ccc(C(=O)/C=C/C(=O)N(CC(=O)NC2CCCCC2)Cc2ccc(F)cc2)c(O)c1 | 2.25 µM
CCOc1ccc(/C=N/NC(=O)c2cc(-c3ccco3)nc3ccccc23)cc1 | inactive
CCCCCCCC(=O)N/N=C/c1ccc(Br)cc1 | 4.47 µM
CCCNC(=O)c1nnsc1S(=O)c1ccc(Cl)cc1 (stereo not drawn) | inactive
CN(C(=O)CCl)C1CCCc2ccccc21 (stereo not drawn) | inactive
CC(C)Cn1c(=O)[nH]c(=O)c2c(C(F)(F)F)cc(-c3ccccc3)nc21 | > 10 µM (inactive)
CC1=CC2/C=C(\C)CCC(O)C(O)/C=C/C(=O)C23C(=O)NC(CC(C)C)C3C1C (stereo not drawn) | inactive
COC(=O)CN1C(=S)N(Cc2ccccc2)C(=O)C1CC(=O)Nc1ccc(Br)cc1 (stereo not drawn) | 5.87 µM
Nc1c(C(=O)Nc2ccc(S(=O)(=O)N3CCCC3)cc2)sc2nc3ccc(OC(F)(F)F)cc3cc12 | inactive
CCCCc1ccc(Nc2nc(CCC)cc(=O)[nH]2)cc1 | 2.24 µM
COc1cc(/C=C/C(=O)OC2CC3CCC2(C)C3(C)C)ccc1O (stereo not drawn) | > 10 µM (inactive)
Cc1ccc(OCC(=O)N2CCN(c3nnc(-c4ccc(C)cc4)c4ccccc34)CC2)cc1 | inactive
Cc1cc(C)c2nc(C(F)(F)F)c(C#N)c(N)c2c1 | > 10 µM (inactive)
CCOC(=O)c1c(N)sc(C(O)(C(F)(F)F)C(F)(F)F)c1-c1ccc(Cl)cc1 | inactive
CC(C)(C)C1C/C(=C/c2ccccn2)C(=O)/C(=C/c2ccccn2)C1 (stereo not drawn) | 0.55 µM
CC(=O)C(C(C)=O)c1c(Cl)c(O)c(O)c2c(C(=O)c3ccccc3)coc12 | inactive
Cc1ccc(CNCC(O)(c2ccccc2)c2ccc(Cl)cc2)cc1 (stereo not drawn) | inactive
COc1cccc(-c2nnc(NC(=O)c3ccc(S(=O)(=O)N(CC(C)C)CC(C)C)cc3)o2)c1 | inactive

SMILES | IC50
CC(=O)N(C1=C(Cl)C(=O)c2ccccc2C1=O)C1CCCCC1 | inactive
CC(C)=CCc1c(O)cc2oc3c(CC=C(C)C)c(O)c(O)c(CC=C(C)C)c3c(=O)c2c1O | 5.24 µM
CC(NC(=O)/C(C#N)=C/c1ccc(Cl)c([N+](=O)[O-])c1)c1ccccc1 (stereo not drawn) | > 10 µM (inactive)
O=c1oc2ccccc2c(Cl)c1CN1CCCCC1 | inactive
Cc1ccc(-c2[nH]ncc2/C=N/n2c(COc3ccccc3)nc3ccccc3c2=O)cc1 | inactive
O=[N+]([O-])c1cc(S(=O)(=O)C(F)(F)F)ccc1Sc1nc2ccccc2[nH]1 | inactive
CC[C@@H](C)[C@H](NC(=O)OC(C)(C)C)c1nnc(S(=O)(=O)Cc2cc(C)ccc2C)o1 | 3.76 µM
O=C(Cc1ccccc1)Nc1cccc(N2C(=O)C=CC2=O)c1 | inactive
Cc1cc(/C=c2/sc3nc4ccccc4n3c2=O)c(C)n1-c1ccccn1 | < 0.16 µM
Cc1ccc(Cn2c(SCC(=O)Nc3cc(C)on3)nc3ccccc3c2=O)cc1 | > 10 µM (inactive)
Cc1nc2ccccn2c1C(=O)N=Nc1c(O)n(CCC(C)C)c2ccccc12 | > 10 µM (inactive)
Oc1ccc(/C=N/Nc2nc(N3CCCCCC3)nc(N3CCCCCC3)n2)c(O)c1 | > 10 µM (inactive)
Nc1c(S(=O)(=O)c2ccccc2)c2nc3ccccc3nc2n1/N=C/c1cccc(O)c1 | > 10 µM (inactive)
S=C(Nc1ccccc1)Nc1ccc(OCc2ccc(Cl)cc2Cl)cc1 | 0.19 µM
CCCCc1ccc(NC(=S)Nc2ccc(Cl)c(S(=O)(=O)N(C)C)c2)cc1 | > 10 µM (inactive)
CCCOC(=O)c1ccc(Oc2cn[nH]c2-c2ccc(OC)cc2O)cc1 | 4.82 µM
CCCCCCCn1c(=O)c(C(=O)Nc2cnccn2)c(O)c2ccccc21 | 2.1 µM
Cc1ccc(-n2c(Cl)c(Cl)nc(Cl)c2=O)cc1 | 2.32 µM
CCCCn1c(=O)[nH]c(=O)c2c1nc(-c1ccc(OCCC)c(OCC)c1)n2C | > 10 µM (inactive)
O=Nc1ccc(O)c2ncccc12 | 5.08 µM
O=C(c1ccc(COc2ccc(Cl)cc2)o1)N1N=C(C(F)F)CC1(O)C(F)F (stereo not drawn) | inactive
OCCCNc1cc(-c2ccnc(Nc3cccc(Cl)c3)n2)ccn1 | < 0.16 µM
Fc1c(F)c(C(F)(F)F)c(F)c(F)c1N/N=C\c1cccs1 | 4.26 µM
Cc1ccc(NC2=C/C(=N\S(=O)(=O)c3cccs3)c3ccccc3C2=O)c(C)c1 | 0.55 µM
CC1(c2ccccc2)CC(C)(C)N2C(=O)C3(C(C#N)=C(N)Oc4cc(O)ccc43)c3cccc1c32 (stereo not drawn) | > 10 µM (inactive)

SMILES | IC50
CC(C)Oc1ccc(CNC(=S)N/N=C/c2ccc([N+](=O)[O-])cc2)cc1 | > 10 µM (inactive)
Cc1cc(C)c(S(=O)(=O)NCCn2c(C)cc3ccccc32)c(C)c1 | > 10 µM (inactive)
Cc1cc(/C=N/n2cnnc2)c(C)n1-c1ccc(OCc2ccc(Cl)cc2)cc1 | 0.56 µM
O=C1NC[C@@H](Cc2cccc3ccccc23)N(CCc2cc(C(F)(F)F)cc(C(F)(F)F)c2)C1=O | inactive
O=C1N(c2ccccc2)C[C@@H]2C[C@@H](c3cccs3)N3CCC[C@@]123 | 2.84 µM
O=C(NNC(=O)c1cccc2ccccc12)c1ccc(-c2ccccc2)cc1 | > 10 µM (inactive)
O=C(CSC1c2ccccc2-c2ccccc21)N/N=C/c1ccccc1O | > 10 µM (inactive)
COc1ccc(/C=C2/SC(=S)N(CCCC(=O)Nc3ccc(O)cc3)C2=O)cc1 | 0.18 µM
Oc1ccc(Oc2ccc3c(C(F)(F)F)cc(C(F)(F)F)nc3n2)cc1 | > 10 µM (inactive)
COc1ccccc1-c1cc(C(F)(F)F)nc(S(=O)(=O)CCCC(=O)Nc2cc(C)on2)n1 | inactive
O=C(NCc1ccccc1Cl)c1ccc(S(=O)(=O)Nc2cccc(C(F)(F)F)c2)cc1 | > 10 µM (inactive)
CCOC(=O)c1c(CN2CCOCC2)n(-c2ccccc2)c2cc(Br)c(O)cc12 | > 10 µM (inactive)
O=C(/C=C/Sc1ncn[nH]1)c1ccc(Cl)cc1 | inactive
Cn1c(=O)c(C(=O)Nc2ncccc2O)c(O)c2ccccc21 | > 10 µM (inactive)
CCOc1ccc(-n2c(SCC(=O)Nc3ccc(Br)cc3)nc3n[nH]c(C)c3c2=N)cc1 | > 10 µM (inactive)
CC(C)C[C@H](NC(=O)c1[nH]cnc1C(=O)Nc1ccccc1)C(=O)OC(C)(C)C | inactive
COc1cccc(-n2nnnc2S(C)(=O)=O)c1 | inactive
Oc1ccc(/C=N/N2CCN(C3c4ccccc4-c4ccccc43)CC2)c(O)c1 | > 10 µM (inactive)
CCCCc1nc(NCCN)c(C#N)c2c1CSC(C)(C)C2 | inactive
CCOc1cc(C(=O)CSc2nnc(CNc3ccc(Cl)cc3)o2)ccc1NC(=O)CC | inactive
CC(C)(C)c1ccc(CN2N=Nc3ccccc3S2(=O)=O)cc1 | inactive
OC(CNCC1CCCO1)Cn1c2ccc(Br)cc2c2cc(Br)ccc21 (stereo not drawn) | > 10 µM (inactive)
COc1ccc(C2CC(c3c(-c4ccccc4)c4cc(Cl)ccc4[nH]c3=O)=NN2S(C)(=O)=O)cc1OC (stereo not drawn) | inactive

Reference: PubChem BioAssay AID504313 (Emory University Molecular Libraries Screening Center, 2011)
